Test results from US6887896B1, “7-[(7-Alkoxy)-chrom-3-en-6-yl]-heptatrienoic acid and 7-[(3-alkoxy)-5,6-dihydronaphthalen-2-yl]-heptatrienoic acid derivatives having serum glucose reducing activity” (Allergan, Inc., priority 2003, dated 2005).

Tests used:
RARβ [1] = molecular target: T1, RARβ (Homo sapiens, UniProt P10826); assay: ligand binding assay, RARβ; conditions: for Ki: read-out: RAR Bind. Ki β; for Kd: Table 9 (Formula F), read-out: RAR β Kd
T1 sequence (P10826 1-455): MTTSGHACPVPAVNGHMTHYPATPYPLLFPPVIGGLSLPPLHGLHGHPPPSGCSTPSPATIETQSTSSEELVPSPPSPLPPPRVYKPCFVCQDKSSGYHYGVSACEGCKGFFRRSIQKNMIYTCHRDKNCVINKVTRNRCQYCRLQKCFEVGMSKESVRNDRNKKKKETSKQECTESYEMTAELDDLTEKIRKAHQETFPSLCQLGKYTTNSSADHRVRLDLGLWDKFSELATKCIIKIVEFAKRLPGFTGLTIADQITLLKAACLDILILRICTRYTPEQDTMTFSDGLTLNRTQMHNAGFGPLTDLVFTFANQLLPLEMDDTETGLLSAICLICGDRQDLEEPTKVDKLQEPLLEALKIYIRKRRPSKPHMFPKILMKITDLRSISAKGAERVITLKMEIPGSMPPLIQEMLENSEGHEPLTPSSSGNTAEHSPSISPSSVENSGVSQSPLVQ
Excerpt: (§1) Specifically, one such assay is a chimeric receptor transactivation assay which tests for agonist-like activity in the R RAPE and RAR7 receptor subtypes, and which is based on work published by Feigner, P. L. and Holm, M (1989) Focus, 112 is described in detail in U.S. Pat. No. 5,455,265. The specification of U.S. Pat. No. 5,455,265 is hereby expressly incorporated by reference. A holoreceptor transactivation assay and a ligand binding assay which measure the antagonist/agonist like activity of the compounds of the invention, or their ability to bind to the several retinoid receptor subtypes, respectively, are described in published PCT Application No. WO WO93/11755 (particularly on pages 30-33 and 37-41) published on Jun. 24, 1993, the specification of which is also incorporated herein by reference. A detailed experimental procedure for holoreceptor transactivations has been described by Heyman et al. Cell 68, 397-406, (1992); Allegretto et al. J. Biol. Chem. 268, 26625-26633, and Mangelsdorf et al. The Retinoids: Biology, Chemistry and Medicine, pp 319-349, Raven Press Ltd., New York, which are expressly incorporated herein by reference. The results obtained in this assay are expressed in EC50 numbers, as they are also in the chimeric receptor transactivation assay. The results of the ligand binding assay are expressed in Ki numbers. (See Cheng et al. Biochemical Pharmacology Vol. 22 pp 3099-3108, expressly incorporated herein by reference.)
(§2) Generally speaking, in the tables disclosing the results of transactivation and binding assays the numbers in parentheses indicate efficacy as a percentage compared to the standard compound, (2E,4E,1′S,2′S)-3-methyl-5-[2′-methyl-2′-(5,5,8,8-tetramethyl-5,6,7,8-tetrahydro-naphthalen-2-yl)cyclopropyl]-penta-2,4-dienoic acid and the other numbers indicate the measured EC50 and K; in nanomolar concentration.

RXRα [2] = molecular target: T2, RXRα (Homo sapiens, UniProt P19793); assay: ligand binding assay, RXRα; conditions: for Ki: read-out: RXR Bind Ki α
T2 construct: expressed in transfected cells
T2 sequence (P19793 1-462): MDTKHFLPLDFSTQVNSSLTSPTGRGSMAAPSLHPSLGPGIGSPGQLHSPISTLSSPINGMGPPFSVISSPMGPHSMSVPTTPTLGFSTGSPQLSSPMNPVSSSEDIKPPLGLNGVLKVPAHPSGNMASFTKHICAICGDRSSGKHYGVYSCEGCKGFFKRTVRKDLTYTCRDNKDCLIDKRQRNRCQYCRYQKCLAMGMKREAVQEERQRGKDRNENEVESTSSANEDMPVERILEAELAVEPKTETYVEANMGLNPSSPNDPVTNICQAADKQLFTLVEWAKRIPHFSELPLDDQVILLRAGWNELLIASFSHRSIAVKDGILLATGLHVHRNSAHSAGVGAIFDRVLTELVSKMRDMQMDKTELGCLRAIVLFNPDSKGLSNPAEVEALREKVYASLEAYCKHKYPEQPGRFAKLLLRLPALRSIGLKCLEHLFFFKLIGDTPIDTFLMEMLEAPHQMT
Excerpt: as §1, §2

RXRα [3] = molecular target: T2, RXRα; assay: holoreceptor transactivation assay, RXRα; type: cell-based; conditions: for EC50: holoreceptor transactivation, read-out: RXR Trans. EC50 α; for Emax: percentage compared to the standard compound, read-out: RXR Trans. efficacy (number in parentheses) α
Excerpt: as §1
(§3) Efficacy in a transactivation assay is expressed as a percentage of the maximum potency attained by the compound compared to a standard which, in this case, is the compound named (2E,4E,1′S,2′S)-3-methyl-5-[2′-methyl-2′-(5,5,8,8-tetramethyl-5,6,7,8-tetrahydro-naphthalen-2-yl)-cyclopropyl]-penta-2,4-dienoic acid. This standard compound is described in U.S. Pat. No. 6,114,533.
(§4) The specification of this application for patent is organized in several sections in accordance with structural Formulas A through F each of which discloses a group of preferred compounds within the scope of the invention. Tables that disclose the activity of certain exemplary compounds of the invention in the above-described RXR receptor transactivation and binding assays are found in the corresponding sections. […] The transactivation data pertaining to the activation of RXR receptors were obtained in the holoreceptor assay.
as §2

RXRγ = molecular target: T3, RXRγ (UniProt P28705); assay: holoreceptor transactivation assay, RXRγ; type: cell-based; conditions: for EC50: holoreceptor transactivation, read-out: RXR Trans. EC50 γ; for RXR Trans. efficacy (number in parentheses) γ: percentage compared to the standard compound
T3 sequence (P28705 1-463): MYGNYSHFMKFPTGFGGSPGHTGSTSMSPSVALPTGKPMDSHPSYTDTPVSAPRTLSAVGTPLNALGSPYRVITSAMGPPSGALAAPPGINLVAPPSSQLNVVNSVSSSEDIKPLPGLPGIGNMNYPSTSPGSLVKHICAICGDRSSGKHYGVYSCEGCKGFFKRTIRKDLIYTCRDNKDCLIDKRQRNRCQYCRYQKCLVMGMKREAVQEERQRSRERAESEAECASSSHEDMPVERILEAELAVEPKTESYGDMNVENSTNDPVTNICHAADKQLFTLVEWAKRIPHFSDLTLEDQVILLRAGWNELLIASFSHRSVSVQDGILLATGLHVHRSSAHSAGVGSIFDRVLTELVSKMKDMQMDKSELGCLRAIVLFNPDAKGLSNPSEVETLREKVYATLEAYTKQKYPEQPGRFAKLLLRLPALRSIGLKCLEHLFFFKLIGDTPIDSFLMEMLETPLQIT
Excerpt: as §1, §3, §4, §2

RARβ [4] = molecular target: T4, RARβ (Homo sapiens, UniProt P10826); assay: chimeric receptor transactivation assay, RARβ; type: cell-based; conditions: for EC50: chimeric receptor transactivation, read-out: RAR Trans. EC50 β; for Emax: percentage compared to the standard compound, read-out: RAR Trans. efficacy (number in parentheses) β
T4 sequence (P10826 183-417 limits assumed): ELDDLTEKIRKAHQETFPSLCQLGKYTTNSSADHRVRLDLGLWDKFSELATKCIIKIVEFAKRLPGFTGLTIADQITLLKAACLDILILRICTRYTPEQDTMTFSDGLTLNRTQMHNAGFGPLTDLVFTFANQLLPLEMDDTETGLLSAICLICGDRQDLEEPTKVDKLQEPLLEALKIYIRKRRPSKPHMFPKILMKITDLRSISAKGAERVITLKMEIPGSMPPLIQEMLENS
Excerpt: as §1, §3, §4, §2

| SMILES | Ki (RARβ [1]) | Ki (RXRα [2]) | EC50 (RXRα [3]) | Emax (RXRα [3]) | EC50 (RXRγ) | RXR Trans. efficacy (number in parentheses) γ (RXRγ) | EC50 (RARβ [4]) | Emax (RARβ [4]) | Kd (RARβ [1]) | Kd (RXRα [2]; Table 9 (Formula F), read-out: RXR α Kd) |
| --- | --- | --- | --- | --- | --- | --- | --- | --- | --- | --- |
| CCOc1c(\C(C)=C/C=C/C(C)=C/C(=O)O)cc2c(c1Cl)OC(C)(C)C=C2C(C)C [Compound 50, 7-(8-Chloro-4-isopropyl-7-ethoxy-2,2-dimethyl-2H-chromen-6-yl)-3-methyl-octa-2E,4E,6Z-trienoic acid] | 1300 nM | 4 nM | 2 nM | 56% | 5 nM | 47% | – | – | – | – |
| CCOc1c(\C(=C/C=C/C(C)=C/C(=O)O)CC)cc2c(c1Cl)OC(C)(C)C=C2C(C)C [Compound 51] | 1400 nM | 13 nM | 9 nM | 25% | 22 nM | 13% | – | – | – | – |
| CCC1=CC(C)(C)Oc2cc(OC)c(\C(C)=C(F)/C=C/C(C)=C/C(=O)O)cc21 [Compound 120, 7-(4Ethyl-7-methoxy-2,2-dimethyl-2H-chromen-6-yl)-6-fluoro-3-methyl-octa-2E,4E,6E-trienoic acid] | 8100 nM | 277 nM | > 10000 nM | – | > 10000 nM | – | – | – | – | – |
| COc1cc2c(cc1\C(C)=C(F)/C=C/C(C)=C/C(=O)O)C(C(C)(C)C)=CC(C)(C)O2 [Compound 122, 7-(4-tert-Butyl-7-methoxy-2,2-dimethyl-2H-chromen-6-yl)-6-fluoro-3-methyl-octa-2E,4E,6E-trienoic acid] | 1400 nM | 11 nM | 5 nM | 36% | 9 nM | 52% | – | – | – | – |
| CCOc1cc2c(cc1\C(C)=C(F)/C=C/C(C)=C/C(=O)O)C(CC)=CC(C)(C)O2 [Compound 123, 7-(7-Ethoxy-4-ethyl-2,2-dimethyl-2H-chromen-6-yl)-6-fluoro-3-methyl-octa-2E,4E,6E-trienoic acid] | > 10000 nM | 833 nM | > 10000 nM | – | > 1000 nM | – | – | – | – | – |
| COc1c(\C(C)=C(F)/C=C/C(C)=C/C(=O)O)cc2c(c1Cl)OC(C)(C)C=C2C(C)C [Compound 170, 7-(8-Chloro-4-isopropyl-7-methoxy-2,2-dimethyl-2H-chromen-6-yl)-6-fluoro-3-methyl-octa-2E,4E,6E-trienoic acid] | 2300 nM | 2 nM | 0.8 nM | 86% | 0.2 nM | 109% | – | – | – | – |
| CCOc1c(\C(C)=C(F)/C=C/C(C)=C/C(=O)O)cc2c(c1Cl)OC(C)(C)C=C2C(C)C [Compound 172, 7-(8-Chloro-4-isopropyl-7-ethoxy-2,2-dimethyl-2H-chromen-6-yl)-6-fluoro-3-methyl-octa-2E,4E,6E-trienoic acid] | 442 nM | 10 nM | 5.4 nM | 52% | 10 nM | 46% | – | – | – | – |
| CCOc1c(\C(CC)=C(F)/C=C/C(C)=C/C(=O)O)cc2c(c1Cl)OC(C)(C)C=C2C(C)C [Compound 173] | 431 nM | 2 nM | 4.8 nM | 18% | 6 nM | 10% | – | – | – | – |
| CC(/C=C/C(F)=C(/C)c1cc2c(c(Cl)c1OC(C)C)OC(C)(C)C=C2C(C)C)=C\C(=O)O [Compound 174] | 1300 nM | 29 nM | 59 nM | 8% | 114 nM | 6% | – | – | – | – |

Next, values leading:

| Ki (RARβ [1]) | Ki (RXRα [2]) | EC50 (RXRα [3]) | Emax (RXRα [3]) | EC50 (RXRγ) | RXR Trans. efficacy (number in parentheses) γ (RXRγ) | EC50 (RARβ [4]) | Emax (RARβ [4]) | Kd (RARβ [1]) | Kd (RXRα [2]; Table 9 (Formula F), read-out: RXR α Kd) | SMILES |
| --- | --- | --- | --- | --- | --- | --- | --- | --- | --- | --- |
| 371 nM | 6 nM | 41 nM | 69% | 41 nM | (73) % | – | – | – | – | CCOc1cc2c(cc1\C(CC)=C(F)/C=C/C(C)=C/C(=O)O)C=CCC2(C)C [Compound A-77] |
| – | 2 nM | 1 nM | 62% | 2 nM | 59% | 829 nM | 62% | – | – | CCOc1cc2c(cc1\C(C)=C(F)/C=C/C(C)=C/C(=O)O)C(C(C)C)=CCC2(C)C [Compound A-79, (2E,4E,6E)-6-Fluoro-3-(4,4-dimethylethoxy-1-isopropyl-3,4-dihydronaphthalen-7-yl)-3-methyl-2.4,6-octa-trienoic acid] |
| – | – | 0.4 nM | 66% | 0.6 nM | 71% | – | – | 252 nM | 3 nM | CCOc1c(\C(C)=C(F)/C=C/C(C)=C/C(=O)O)cc2c(c1Br)C(C)(C)CC=C2C(C)C [Compound A-169, (2E,4E,6E)-7-(4-Bromo-3-ethoxy-8-isopropyl-5,5-dimethyl-5,6-dihydro-naphthalen-2-yl)-6-fluoro-3-methyl-octa-2.4,6-trienoic acid] |
| – | – | 0.9 nM | 58% | 3 nM | 53% | 14 nM | 19% | 112 nM | – | CCOc1c(\C(CC)=C(F)/C=C/C(C)=C/C(=O)O)cc2c(c1Br)C(C)(C)CC=C2C(C)CC (stereo not shown) [Compound A-176, (2E,4E,6E)-7-(4-Bromo-8-sec-butyl-3-ethoxy-5,5-methyl-5,6-dihydro-naphthalen-2-yl)-6-fluoro-3-methyl-nona-2,4,6-trienoic acid] |
